The nature of the assay: Odor description on paper blotter. To be noted: 1% solution in EtOH on paper blotter, 24 h.
Regarding “3-ethoxy-4-((4-methylhepta-3,6-dien-1-yl)oxy)benzaldehyde and 3-ethoxy-4-((4-methylhepta-3,5-dien-1-yl)oxy)benzaldehyde [Example 29]”, the Odor description result was “powdery (vanilla) sweet (sugary)”.

For `CC/C=C/CCOc1ccc(C=O)cc1OCC` [Example 2, (E)-3-ethoxy-4-(hex-3-en-1-yloxy)benzaldehyde], the Odor description result is listed as “powdery (vanilla, creamy) slightly fruity (raspberry, strawberry)”.

Turning to `CC/C=C\CC(C)Oc1ccc(C=O)cc1OCC` (stereo not drawn) [Example 4, (Z)-3-ethoxy-4-(hept-4-en-2-yloxy)benzaldehyde], the Odor description entry is given as “sweet (brown sugar) powdery (vanillin, chocolate, ice cream)”.

In the case of `CC/C=C\CC(C)Oc1ccc(CCC(C)=O)cc1` (stereo not drawn) [Example 5, (Z)-4-(4-(hept-4-en-2-yloxy)phenyl)butan-2-one], the Odor description entry was “raspberry (fruity, ripe, fresh)”.

On to `CC/C=C/CCOc1ccc(CCC(C)=O)cc1` [Example 7, (E)-4-(4-(hex-3-en-1-yloxy)phenyl)butan-2-one], for which the Odor description result is given as “raspberry”.

Turning to `C=CCCOc1ccc(C=O)cc1OCC` [Example 12, 4-(but-3-en-1-yloxy)-3-ethoxybenzaldehyde], the Odor description result was “powdery (vanilla, creamy, dough)”.

In the case of `C=CCCOc1ccc(CC=C)cc1OC` [Example 13, 4-allyl-1-(but-3-en-1-yloxy)-2-methoxybenzene], the Odor description entry is “slightly spicy (iso eugenol) fruity (berry)”.

For the molecule `C=CCCOc1cc(C)c(C(=O)OC)c(O)c1C` [Example 14, methyl 4-(but-3-en-1-yloxy)-2-hydroxy-3,6-dimethylbenzoate], the Odor description result is “slightly mossy”.

Regarding `C=C(C)CCOc1ccc(C=O)cc1OCC` [Example 15, 3-ethoxy-4-((3-methylbut-3-en-1-yl)oxy)benzaldehyde], the Odor description entry is given as “mild, powdery, spicy”.

As to `C=C(C)CCOc1ccc(CCC(C)=O)cc1` [Example 16, 4-(4-((3-methylbut-3-en-1-yl)oxy)phenyl)butan-2-one], the Odor description entry is “fruity (raspberry) sweet”.

Turning to `CCCC/C=C\CCOc1ccc(C=O)cc1OCC` [Example 17, (Z)-3-ethoxy-4-(oct-3-en-1-yloxy)benzaldehyde], the Odor description entry was “vanilla (powdery, spicy, creamy)”.

For `C=CCC(CCC)Oc1ccc(C=O)cc1OCC` (stereo not drawn) [Example 19, 3-ethoxy-4-(hept-1-en-4-yloxy)benzaldehyde], the Odor description result was “powdery (dry, vanilla) fruity (metallic)”.

As for `C=CCC(CCC)Oc1ccc(CCC(C)=O)cc1` (stereo not drawn) [Example 21, 4-(4-(hept-1-en-4-yloxy)phenyl)butan-2-one], the Odor description result was “raspberry”.

As for `C=CCC(CC=C)Oc1ccc(C=O)cc1OCC` [Example 22, 3-ethoxy-4-(hepta-1,6-dien-4-yloxy)benzaldehyde], the Odor description entry is on record as “powdery (creamy, vanilla)”.

As to `C=CCC(CC=C)Oc1ccc(CCC(C)=O)cc1` [Example 23, 4-(4-(hepta-1,6-dien-4-yloxy)phenyl)butan-2-one], the Odor description entry is “fruity (raspberry)”.

As to `C=CCC(C=C(C)C)Oc1ccc(C=O)cc1OCC` (stereo not drawn) [Example 24, 3-ethoxy-4-((6-methylhepta-1,5-dien-4-yl)oxy)benzaldehyde], the Odor description result is “powdery (creamy, vanilla)”.

On to `C=CCC(CC)Oc1ccc(CCC(C)=O)cc1` (stereo not drawn) [Example 25, 4-(4-(hex-5-en-3-yloxy)phenyl)butan-2-one], for which the Odor description result is reported as “sweet (icing sugar cristal) raspberry”.

For `C=CCC(C=CC)Oc1ccc(CCC(C)=O)cc1` (stereo not drawn) [Example 26, 4-(4-(hepta-1,5-dien-4-yloxy)phenyl)butan-2-one], the Odor description entry is recorded as “sweet (icing sugar cristal) raspberry”.

On to `C=CCC(C=C(C)C)Oc1ccc(CCC(C)=O)cc1` (stereo not drawn) [Example 27, 4-(4-((6-methylhepta-1,5-dien-4-yl)oxy)phenyl)butan-2-one], for which the Odor description result was “fruity (powdery, sweet, raspberry)”.

In the case of `C=CCC(C)(C)Oc1ccc(C=O)cc1OCC` [Example 28, 3-ethoxy-4-((2-methylpent-4-en-2-yl)oxy)benzaldehyde], the Odor description entry is “powdery (vanilla)”.

For the molecule `CCC=CCCOc1cc(C)ccc1C(C)C` [Example 30, 2-(hex-3-en-1-yloxy)-1-isopropyl-4-methylbenzene], the Odor description result was “aromatic, thymol, menthol”.

With `CCOc1cc(C=O)ccc1OCCC=CCC(C)C` [Example 31, 3-ethoxy-4-((6-methylhept-3-en-1-yl)oxy)benzaldehyde], the Odor description entry is “powdery, vanilla, green, hazelnut, chocolate”.

Turning to `CCOc1cc(C=O)ccc1OCC/C=C/C(C)C` [Example 32, (E)-3-ethoxy-4-((5-methylhex-3-en-1-yl)oxy)benzaldehyde], the Odor description result is given as “powdery, vanilla, green, hazelnut, chocolate”.

As to `CCC(C)=CCCOc1ccc(CCC(C)=O)cc1` [Example 36, 4-(4-((4-methylhex-3-en-1-yl)oxy)phenyl)butan-2-one], the Odor description entry was “fruity, raspberry, sweet, powdery”.

For `COc1cc(C=O)ccc1OCCC=C(C)C` [Example 37, 3-methoxy-4-((4-methylpent-3-en-1-yl)oxy)benzaldehyde], the Odor description entry is “powdery, vanilla, creamy”.

For `CCCC(C)=CCCOc1ccc(C=O)cc1OC` [Example 38, 3-methoxy-4-((4-methylhept-3-en-1-yl)oxy)benzaldehyde], the Odor description entry is “powdery, vanilla, chocolate”.

For the molecule `CC/C=C\CCOc1ccccc1OCC` [Example 39, (Z)-1-ethoxy-2-(hex-3-en-1-yloxy)benzene], the Odor description result is listed as “medicinal, phenolic, vanilla”.

For `CCOc1cc(C=O)ccc1OCCC=C(C)CC` [Example 40, 3-ethoxy-4-((4-methylhex-3-en-1-yl)oxy)benzaldehyde], the Odor description entry is “powdery, vanilla, creamy, chocolate, slightly butyric”.

With `CC/C=C\CCOc1cc(C)cc(OC)c1` [Example 41, (Z)-1-(hex-3-en-1-yloxy)-3-methoxy-5-methylbenzene], the Odor description result is listed as “green, bell pepper”.

On to `CCc1ccc(OCCC=C(C)C)cc1` [Example 42, 1-ethyl-4-((4-methylpent-3-en-1-yl)oxy)benzene], for which the Odor description entry is listed as “animalic, leathery, phenolic, paracresol”.

`COc1cc(C)cc(OCCC=C(C)C)c1` [Example 43, 1-methoxy-3-methyl-5-((4-methylpent-3-en-1-yl)oxy)benzene]: the Odor description result is listed as “animalic, leathery, phenolic, paracresol, green, hay, rooty”.

`CC(C)=CCCOc1ccc(C)cc1` [Example 44, 1-methyl-4-((4-methylpent-3-en-1-yl)oxy)benzene]: the Odor description result was “animalic, leathery, phenolic, paracresol”.

Consider `CCCc1cccc(OCCC=C(C)C)c1` [Example 45, 1-((4-methylpent-3-en-1-yl)oxy)-3-propylbenzene], for which the Odor description result is given as “animalic, leathery, phenolic, paracresol, green, hay, rooty”.

Regarding `CC/C=C\CCOc1ccccc1C(=O)CC` [Example 46, (Z)-1-(2-(hex-3-en-1-yloxy)phenyl)propan-1-one], the Odor description entry is “green, wintergreen”.

With `CC/C=C\CCOc1ccc(C=NOC)cc1OCC` [Example 47, 3-ethoxy-4-(((Z)-hex-3-en-1-yl)oxy)benzaldehyde O-methyl oxime], the Odor description result is recorded as “vanilla (sweet, gourmand, carnation floral, chestnut cream)”.

On to `CC/C=C\CCOc1ccc(COCC)cc1OCC` [Example 48, (Z)-2-ethoxy-4-(ethoxymethyl)-1-(hex-3-en-1-yloxy)benzene], for which the Odor description result was “spicy (eugenol, smokey), powdery (vanilla)”.

`CC/C=C\CCOc1ccc(COC)cc1OCC` [Example 49, (Z)-2-ethoxy-1-(hex-3-en-1-yloxy)-4-(methoxymethyl)benzene]: the Odor description result is “spicy (eugenol, smokey), powdery (vanilla)”.

Turning to `CC/C=C\CCOc1ccc(COC(C)C)cc1OCC` [Example 50, (Z)-2-ethoxy-1-(hex-3-en-1-yloxy)-4-(isopropoxymethyl)benzene], the Odor description result was “spicy (eugenol, smokey), powdery (vanilla), green”.

As for `CCOc1cc(C=O)ccc1OC1CC=CCC1` (stereo not drawn) [Example 51, 4-(cyclohex-3-en-1-yloxy)-3-ethoxybenzaldehyde], the Odor description result is “powdery (vanilla)”.

For `CCOc1cc(C=O)ccc1OCCC=CCCOc1ccc(C=O)cc1OCC` [Example 52, 4,4′-(hex-3-ene-1,6-diylbis(oxy))bis(3-ethoxybenzaldehyde)], the Odor description result was “powdery (vanilla)”.

In the case of `CCOc1cc(C=O)ccc1OCCC=CC(=O)OC` [Example 60, methyl 5-(2-ethoxy-4-formylphenoxy)pent-2-enoate], the Odor description entry is “sweet powdery gourmand, vanilla, coffee, creamy, vanilla, milky”.

Take `C=CCC(Oc1ccc(C=O)cc1OCC)C(=O)OCC` (stereo not drawn) [Example 61, ethyl 2-(2-ethoxy-4-formylphenoxy)pent-4-enoate]: the Odor description result is reported as “sweet powdery gourmand (vanilla, coffee) creamy (vanilla, milky)”.

With `COC(=O)c1c(C)cc(OCCC=C(C)C)c(C)c1O` [Example 62, methyl 2-hydroxy-3,6-dimethyl-4-((4-methylpent-3-en-1-yl)oxy)benzoate], the Odor description result was “mossy (evernyl)”.

On to `CC=CCCOc1cc(C)c(C(=O)OC)c(O)c1C` [Example 63, methyl 2-hydroxy-3,6-dimethyl-4-(pent-3-en-1-yloxy)benzoate], for which the Odor description entry was “mossy, evernyl, dry powdery”.

“(Z)-2-ethoxy-1-(hex-3-en-1-yloxy)-4-methylbenzene and (Z)-1-ethoxy-2-(hex-3-en-1-yloxy)-4-methylbenzene [Example 35]”: the Odor description entry was “spicy, eugenol, clove, phenolic, vanilla, medicinal”.

Source of the values: patent publication US20250243427A1, “PRECURSORS OF PHENOLIC FRAGRANT COMPOUNDS” (GIVAUDAN SA, priority 2021, published 2025).
